Measured values taken from patent US20140242093A1, “METHODS AND COMPOSITIONS FOR MODULATING THE INNATE IMMUNE RESPONSE AND/OR MYOGENESIS IN A MAMMALIAN SUBJECT” (FRED HUTCHINSON CANCER RESEARCH CENTER, priority 2011, published 2014).

Test system: Human myoblasts
Assay: Expression array of the innate immune response to lentiviral infection versus uninfected cells
Assay type: cell-based
Protocol: RNA was harvested from the lenti-viral infected cells and uninfected control cells at 24 hours after infection.

DUX4-fl: full-length DUX4 protein (SEQ ID NO:110), expressed from lentiviral or pCS2 vectors or in vitro translated
IFITM2 expression ratio vs GFP (.fc) (gene IFITM2 NM_006435.2, vs lenti-GFP, 24 hours after infection): −1.71 log2 fold change
IFITM2 expression ratio vs NoLenti (.fc) (gene IFITM2 NM_006435.2, vs uninfected, 24 hours after infection): −0.46 log2 fold change
IFITM3 expression ratio vs GFP (.fc) (gene IFITM3 NM_021034.2, vs lenti-GFP, 24 hours after infection): −1.95 log2 fold change
IFITM3 expression ratio vs NoLenti (.fc) (gene IFITM3 NM_021034.2, vs uninfected, 24 hours after infection): −0.01 log2 fold change
IL1R1 expression ratio vs GFP (.fc) (gene IL1R1 NM_000877.2, vs lenti-GFP, 24 hours after infection): −1.34 log2 fold change
IL1R1 expression ratio vs NoLenti (.fc) (gene IL1R1 NM_000877.2, vs uninfected, 24 hours after infection): 0.09 log2 fold change
IL7R expression ratio vs GFP (.fc) (gene IL7R NM_002185.2, vs lenti-GFP, 24 hours after infection): −2.26 log2 fold change
IL7R expression ratio vs NoLenti (.fc) (gene IL7R NM_002185.2, vs uninfected, 24 hours after infection): −0.49 log2 fold change
IL8 expression ratio vs GFP (.fc) (gene IL8 NM_000584.2, vs lenti-GFP, 24 hours after infection): −3.88 log2 fold change
IL8 expression ratio vs NoLenti (.fc) (gene IL8 NM_000584.2, vs uninfected, 24 hours after infection): −0.13 log2 fold change
IL18BP expression ratio vs GFP (.fc) (gene IL18BP NM_173042.2, vs lenti-GFP, 24 hours after infection): −1.25 log2 fold change
IL18BP expression ratio vs NoLenti (.fc) (gene IL18BP NM_173042.2, vs uninfected, 24 hours after infection): 0.85 log2 fold change
IRF7 expression ratio vs GFP (.fc) (gene IRF7 NM_004029.2, vs lenti-GFP, 24 hours after infection): −1.96 log2 fold change
IRF7 expression ratio vs NoLenti (.fc) (gene IRF7 NM_004029.2, vs uninfected, 24 hours after infection): 1.02 log2 fold change
IRF9 expression ratio vs GFP (.fc) (gene IRF9 NM_006084.4, vs lenti-GFP, 24 hours after infection): −2.25 log2 fold change
IRF9 expression ratio vs NoLenti (.fc) (gene IRF9 NM_006084.4, vs uninfected, 24 hours after infection): 0.20 log2 fold change
MX1 expression ratio vs GFP (.fc) (gene MX1 NM_002462.2, vs lenti-GFP, 24 hours after infection): −5.67 log2 fold change
MX1 expression ratio vs NoLenti (.fc) (gene MX1 NM_002462.2, vs uninfected, 24 hours after infection): 1.58 log2 fold change
NFIL3 expression ratio vs GFP (.fc) (gene NFIL3 NM_005384.2, vs lenti-GFP, 24 hours after infection): −1.82 log2 fold change
NFIL3 expression ratio vs NoLenti (.fc) (gene NFIL3 NM_005384.2, vs uninfected, 24 hours after infection): 0.07 log2 fold change
NFKBIA expression ratio vs GFP (.fc) (gene NFKBIA NM_020529.1, vs lenti-GFP, 24 hours after infection): −3.00 log2 fold change
NFKBIA expression ratio vs NoLenti (.fc) (gene NFKBIA NM_020529.1, vs uninfected, 24 hours after infection): −0.83 log2 fold change
NFKBIZ expression ratio vs GFP (.fc) (gene NFKBIZ NM_001005474.1, vs lenti-GFP, 24 hours after infection): −1.57 log2 fold change
NFKBIZ expression ratio vs NoLenti (.fc) (gene NFKBIZ NM_001005474.1, vs uninfected, 24 hours after infection): 0.30 log2 fold change
STAT1 expression ratio vs GFP (.fc) (gene STAT1 NM_007315.2, vs lenti-GFP, 24 hours after infection): −2.92 log2 fold change
STAT1 expression ratio vs NoLenti (.fc) (gene STAT1 NM_007315.2, vs uninfected, 24 hours after infection): 1.08 log2 fold change
STAT2 expression ratio vs GFP (.fc) (gene STAT2 NM_005419.2, vs lenti-GFP, 24 hours after infection): −2.69 log2 fold change
STAT2 expression ratio vs NoLenti (.fc) (gene STAT2 NM_005419.2, vs uninfected, 24 hours after infection): −0.77 log2 fold change
TLR3 expression ratio vs GFP (.fc) (gene TLR3 NM_003265.2, vs lenti-GFP, 24 hours after infection): −1.27 log2 fold change
TLR3 expression ratio vs NoLenti (.fc) (gene TLR3 NM_003265.2, vs uninfected, 24 hours after infection): −0.06 log2 fold change
TNFAIP2 expression ratio vs GFP (.fc) (gene TNFAIP2 NM_006291.2, vs lenti-GFP, 24 hours after infection): −1.59 log2 fold change
TNFAIP2 expression ratio vs NoLenti (.fc) (gene TNFAIP2 NM_006291.2, vs uninfected, 24 hours after infection): −0.42 log2 fold change
TNFAIP3 expression ratio vs GFP (.fc) (gene TNFAIP3 NM_006290.2, vs lenti-GFP, 24 hours after infection): −2.90 log2 fold change
TNFAIP3 expression ratio vs NoLenti (.fc) (gene TNFAIP3 NM_006290.2, vs uninfected, 24 hours after infection): −0.38 log2 fold change
TNFAIP6 expression ratio vs GFP (.fc) (gene TNFAIP6 NM_007115.2, vs lenti-GFP, 24 hours after infection): −2.21 log2 fold change
TNFAIP6 expression ratio vs NoLenti (.fc) (gene TNFAIP6 NM_007115.2, vs uninfected, 24 hours after infection): 1.63 log2 fold change
TNFRSF6B expression ratio vs GFP (.fc) (gene TNFRSF6B NM_032945.2, vs lenti-GFP, 24 hours after infection): −1.68 log2 fold change
TNFRSF6B expression ratio vs NoLenti (.fc) (gene TNFRSF6B NM_032945.2, vs uninfected, 24 hours after infection): −0.29 log2 fold change
TNFRSF10A expression ratio vs GFP (.fc) (gene TNFRSF10A NM_003844.2, vs lenti-GFP, 24 hours after infection): −1.13 log2 fold change
TNFRSF10A expression ratio vs NoLenti (.fc) (gene TNFRSF10A NM_003844.2, vs uninfected, 24 hours after infection): 0.07 log2 fold change
TNFRSF14 expression ratio vs GFP (.fc) (gene TNFRSF14 NM_003820.2, vs lenti-GFP, 24 hours after infection): −2.72 log2 fold change
TNFRSF14 expression ratio vs NoLenti (.fc) (gene TNFRSF14 NM_003820.2, vs uninfected, 24 hours after infection): −1.36 log2 fold change
TNFSF10 expression ratio vs GFP (.fc) (gene TNFSF10 NM_003810.2, vs lenti-GFP, 24 hours after infection): −1.13 log2 fold change
TNFSF10 expression ratio vs NoLenti (.fc) (gene TNFSF10 NM_003810.2, vs uninfected, 24 hours after infection): 0.14 log2 fold change
TNFSF13B expression ratio vs GFP (.fc) (gene TNFSF13B NM_006573.3, vs lenti-GFP, 24 hours after infection): −1.76 log2 fold change
TNFSF13B expression ratio vs NoLenti (.fc) (gene TNFSF13B NM_006573.3, vs uninfected, 24 hours after infection): 0.12 log2 fold change
number of lentivirus-induced genes whose induction is suppressed (out of 341): 317 genes
number of the 341 lenti-GFP induced genes induced 2-fold or more (vs uninfected cells, 24 hours): 34 genes
